Laboratory results from EP1733725B2, “Pharmaceutical solution comprising ritonavir, a solvent (long chain fatty acid) and water” (ABBOTT LABORATORIES, priority 1999, dated 2000).
Like-named read-outs stand apart in the source and are kept apart here.

Assay: oral bioavailability in dogs
Format: in vivo, beagle dogs
Conditions: dog, 5 mg/kg
Procedure: Protocol for Oral Bioavailability
Dogs (beagle dogs, mixed sexes, weighing 7-14 kg) were fasted overnight prior to dosing, but were permitted water ad libitum. Each dog received a 100 µg/kg subcutaneous dose of histamine approximately 30 minutes prior to dosing. Each dog received a single dosage form corresponding to a 5 mg/kg dose of the drug. The dose was followed by approximately 10 milliliters of water. Blood samples were obtained from each animal prior to dosing and 0.25, 0.5, 1.0, 1.5, 2, 3, 4, 6, 8, 10, and 12 hours after drug administration. The plasma was separated from the red cells by centrifugation and frozen (-30 °C) until analysis. Concentrations of parent drug were determined by reverse phase HPLC with low wavelength UV detection following liquid-liquid extraction of the plasma samples. The parent drug area under the curve was calculated by the trapezoidal method over the time course of the study. The absolute bioavailability of each test composition as calculated by comparing the area under the curve after oral dosing to that obtained from a single intravenous dose. Each capsule or capsule composition was evaluated in a group containing at least six dogs; the values reported are averages for each group of dogs.

## CC(C)c1nc(CN(C)C(=O)NC(C(=O)NC(Cc2ccccc2)CC(O)C(Cc2ccccc2)NC(=O)OCc2cncs2)C(C)C)cs1 (stereo not drawn) [bistosylate]
In vivo, administered as an unformulated solid in a capsule dosage form, 5 mg/kg oral dose in dogs, read-out: bioavailability
  bioavailability: < 2%

## CC(C)c1nc(CN(C)C(=O)N[C@H](C(=O)N[C@@H](Cc2ccccc2)C[C@H](O)[C@H](Cc2ccccc2)NC(=O)OCc2cncs2)C(C)C)cs1 [compound of formula III]
Both sexes, beagle, plasma, administered as an unformulated solid in a capsule dosage form, 5 mg/kg oral dose in dogs, read-out: bioavailability
  bioavailability: < 2%
Both sexes, beagle, plasma, solution in pharmaceutically acceptable organic solvents with long chain fatty acid, as encapsulated dosage form (soft elastic capsules or hard gelatin capsules), printed 'as high as about 60% or more', read-out: oral bioavailability
  bioavailability: ~60%
